# Results reported in paper PMC4490394 (Scientific Reports, 2015).
# Numbering of substitutions follows the chain as printed.
# Legend:
# [1] = system: AR nuclear translocation in HS-HEK293 cells
# Description: AR overexpressing HS-HEK293 cells immunolabeled with an AR-antibody were imaged either with a high-content screening (HCS) reader (Cellomics ArrayScan HCS VTI reader, Thermo) or with a confocal microscope (LSM780, Zeiss). HS-HEK293 cells in steroid-free assay medium were plated on poly-D-lysine coated microplates (BD) (HCS reader) or on coverslips (confocal imaging). After a 48-hour incubation, the cells were treated with 0.3 (HCS reader) or 1 μM (confocal imaging) of test compounds together with 0.3 nM testosterone for 5 hours. […] Cells were washed, DNA was labeled with DAPI (Sigma, 1 μg//mL), and images were analyzed with a NucTrans. V3 assay algorithm (Thermo). […] Coverslips were mounted with Vectashield containing DAPI (Vector Laboratories).
# testosterone = details: ODM-201-treated patients ref 28; cited from earlier work
# AR(F876L) = target: T1, AR(F876L) (Homo sapiens, UniProt P10275, F877L)
# T1 sequence (P10275 1-920 F877L): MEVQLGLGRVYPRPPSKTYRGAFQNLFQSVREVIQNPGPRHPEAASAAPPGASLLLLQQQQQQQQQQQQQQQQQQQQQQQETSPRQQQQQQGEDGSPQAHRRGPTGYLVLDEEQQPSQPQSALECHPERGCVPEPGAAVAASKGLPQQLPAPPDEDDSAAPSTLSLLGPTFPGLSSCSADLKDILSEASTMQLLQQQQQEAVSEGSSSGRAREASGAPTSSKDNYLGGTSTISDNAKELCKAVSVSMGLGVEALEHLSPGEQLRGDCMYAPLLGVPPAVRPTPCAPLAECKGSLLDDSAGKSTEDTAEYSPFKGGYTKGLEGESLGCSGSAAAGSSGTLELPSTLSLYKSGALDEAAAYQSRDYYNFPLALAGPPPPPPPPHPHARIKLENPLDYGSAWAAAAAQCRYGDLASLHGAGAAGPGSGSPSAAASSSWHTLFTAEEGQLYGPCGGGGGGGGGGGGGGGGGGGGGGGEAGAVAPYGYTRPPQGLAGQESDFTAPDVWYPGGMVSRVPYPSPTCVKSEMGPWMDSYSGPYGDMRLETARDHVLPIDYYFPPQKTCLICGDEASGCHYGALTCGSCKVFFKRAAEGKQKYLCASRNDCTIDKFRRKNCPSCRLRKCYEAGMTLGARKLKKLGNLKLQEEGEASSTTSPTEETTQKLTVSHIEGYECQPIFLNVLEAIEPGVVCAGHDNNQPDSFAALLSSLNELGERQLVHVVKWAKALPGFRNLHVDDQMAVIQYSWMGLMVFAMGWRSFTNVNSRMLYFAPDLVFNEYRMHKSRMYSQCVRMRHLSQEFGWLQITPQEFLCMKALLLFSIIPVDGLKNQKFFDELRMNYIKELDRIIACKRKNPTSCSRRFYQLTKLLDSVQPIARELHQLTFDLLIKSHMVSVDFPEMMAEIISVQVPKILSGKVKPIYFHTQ
# Description: (§2) For one well in a 96-well plate, 190 ng of reporter construct DNA and 10 ng of receptor construct DNA were diluted in Opti-MEM® (Gibco). […] Luciferase activity was measured as described above.
# subcutaneous VCaP tumors = test: Castration-resistant VCaP xenograft, tumor volume; format: in vivo, castrated nude mice; details: 37 days
# orthotopic VCaP tumors = test: Orthotopic VCaP xenograft, tumor growth; format: in vivo, nude mice; details: 50 mg/kg bid oral, 3 weeks, vs control group
# Description: (§1) One million VCaP cells in 20 μL of RPMI-1640 medium were orthotopically injected into the dorsal prostate lobes of athymic nude male mice (7 weeks old from Harlan Winkelman, France). Tumor growth was followed by measuring serum PSA (ProStatus™ PSA EQM Kits, Wallac, Finland). […] At autopsy, blood samples were collected by heart puncture, clotted overnight at +4 °C, and centrifuged. For serum testosterone determination, 25-μL aliquots were extracted twice with 2 mL of diethyl ether and evaporated under nitrogen to dryness. The residues were reconstituted in PBS and measured using a standard radioimmunoassay as described previously.
# [2] = Quantitative whole-body autoradiography (QWBA); format: in vivo; details: rat, compound and its metabolites, data not shown
# [3] = Pharmacokinetic parameters in mice after 7 days oral dosing; format: in vivo; details: male, BALB/c or Balb/cOlaHsd nude, mouse, plasma, 50 mg/kg bid oral
# Description: Control mice received vehicle. […] Brain samples (without olfactory bulbs and medulla oblongata) from each group and time point were pooled and homogenized before the analysis. […] Plasma and brain concentration vs. time were evaluated by noncompartmental analysis using WinNonlin® Professional v. 5.2 software (Pharsight Corporation). Brain/plasma ratios were calculated based on AUC0–24 values for plasma and brain.
# PSA = details: chemotherapy-naïve CRPC patients, 700 mg twice daily, ARADES study ref 28; cited from earlier work
# H1581 lung cancer cells = test: Viability of AR-negative cells (WST-1); format: cell-based, human; details: increasing concentrations, 4 days
# VCaP cells = test: VCaP proliferation assay (WST-1); format: cell-based; details: Homo sapiens, 96 h, 0.1 nM mibolerone, steroid-depleted medium, 4 days, WST-1, read-out: IC50, androgen-induced VCaP cell proliferation
# Description: VCaP cells were treated with a submaximal concentration of mibolerone (0.1 nM) and increasing concentrations of test compounds in steroid-free assay medium supplemented with 4 mM GlutaMAX. After a 4-day incubation with the compounds, cell viability was measured using a WST-1 cell proliferation assay (Roche), according to manufacturer’s instructions.
# serum testosterone = test: Serum testosterone in intact nude mice bearing orthotopic VCaP tumors; format: in vivo; details: 50 mg/kg bid oral, 3 weeks
# Description: as §1
# AR(T877A) = target: T2, AR(T877A) (Homo sapiens, UniProt P10275, T878A)
# T2 sequence (P10275 1-920 T878A): T1 sequence (P10275 1-920 F877L) with L877F, T878A
# Description: as §2
smiles,measurement,setting,value
CC(O)c1cc(C(=O)N[C@@H](C)Cn2ccc(-c3ccc(C#N)c(Cl)c3)n2)[nH]n1 (some centres unmarked) [ODM-201],effect on testosterone-induced nuclear translocation of AR,[1],inhibit
same,serum testosterone levels in treated patients,testosterone,maintained at castrate levels
same,functional activity (agonist/antagonist) on AR(F876L),AR(F876L),full antagonists
same,antitumor activity (tumor volume),"subcutaneous VCaP tumors; 50 mg/kg oral once daily, vs castrated untreated mice",significant antitumor activity
same,antitumor activity (tumor volume),"subcutaneous VCaP tumors; 50 mg/kg oral twice daily, p < 0.001 vs castrated untreated mice, p = 0.0245 vs enzalutamide",significant antitumor activity
same,orthotopic VCaP tumor growth,orthotopic VCaP tumors,inhibited tumor growth significantly
same,access into the brain (QWBA),[2],very low access
same,AUC,[3]; read-out: AUC24,175 µg·h/mL
same,half-life,[3]; read-out: T 1/2 (plasma half-life) (converted),1.6 h
same,"PSA response (50% or greater decrease), share of patients",PSA,86%
same,effect on viability of H1581 cells,H1581 lung cancer cells,no effect
same,IC50,VCaP cells,230 nM
same,effect on serum testosterone levels,serum testosterone,did not affect
same,functional activity (agonist/antagonist) on AR(T877A),AR(T877A),full antagonists
